Source: paper PMC9269118, “Chemical Constituents of the Flowers of Pueraria lobata and Their Cytotoxic Properties” (Plants, 2022)

Key:
[1] = test system: immortalized human ovarian surface epithelial cell line IOSE80PC; assay: MTT cell viability assay, IOSE80PC; assay type: cell-based; details: 48 h incubation, IOSE80PC cells
Excerpt: (§1) To identify anti-tumor constituents in Pueraria Flos, we examined the effects of the 25 isolates on the cell viability of the human ovarian cancer A2780 cell line using the MTT assay. […] To further evaluate the effect of the compounds on the cell viability of non-malignant ovarian epithelial cells, we explored the cytotoxicity of the eight compounds (8, 10, 11, 12, 14, 16, 17, and 21) against the immortalized human ovarian surface epithelial cell line IOSE80PC.
(§2) Human ovarian endometrioid adenocarcinoma cell line A2780 and immortalized ovarian surface epithelial cell line IOSE80PC were provided by Dr. Ie-Ming Shih (Johns Hopkins School of Medicine, Baltimore, MD, USA) and Dr. N. Auersperg (University of British Columbia, Vancouver, British Columbia, Canada), respectively. The cells were cultured in Roswell Park Memorial Institute (RPMI) 1640 supplemented with 5% fetal bovine serum (FBS), penicillin (100 U/mL), and streptomycin sulfate (100 μg/mL) in a 5% CO2 and 95% air humidified atmosphere at 37 °C. RPMI 1640, FBS, streptomycin sulfate, and penicillin were procured from Life Technologies Inc. (Grand Island, NY, USA). The cells were seeded at a density of 1.0 × 10^5 cells/mL in a 96-well plate containing 50 μL of RPMI medium in each well and incubated for 24 h. Various concentrations of compounds dissolved in dimethyl sulfoxide (DMSO) were mixed with RPMI 1640 medium and added into cells in each well. […] Following 48 h incubation, 50 μL of MTT (Molecular Probes Inc., Eugene, OR, USA) solution was added into each well to achieve a final concentration of 0.5 mg/mL and then incubated for an additional 4 h. The medium was discarded, and the formazan blue that formed in the cells was dissolved in 50 μL of DMSO. The optical density was measured at 540 nm by microplate spectrophotometer (SpectraMax; Molecular Devices, Sunnyvale, CA, USA). […] IC50 is defined as the concentration that reduces cell number by 50% compared to control cultures.

VEGF expression = test system: VEGF expression; design: method as in PMID 19005980; details: cited from earlier work
[2] = test system: ovarian cancer cell line OVCAR3; design: method as in PMID 19005980; details: cited from earlier work
[3] = test system: human ovarian cancer cell line A2780; assay: MTT cell viability assay, A2780; assay type: cell-based; details: 48 h incubation, A2780 cells
Excerpt: as §1, §2

(HEK293) = test system: (HEK293); design: method as in doi:10.1016/0031-9422(93)85369-3, PMID 24018191; details: cited from earlier work
LNCaP = test system: LNCaP; design: method as in PMID 19026551; details: cited from earlier work
[4] = test system: murine lymphocytic leukemia (P-388); design: method as in doi:10.1016/0031-9422(93)85369-3, PMID 24018191; details: cited from earlier work
Lu1 = test system: Lu1; design: method as in PMID 19026551; details: cited from earlier work
[5] = test system: colon adenocarcinoma (SW-480); design: method as in doi:10.1016/0031-9422(93)85369-3, PMID 24018191; details: cited from earlier work
MCF-7 = test system: MCF-7; design: method as in PMID 19026551; details: cited from earlier work
[6] = test system: ovarian cancer cell line A2780; design: method as in PMID 18974065, PMID 19447105; details: by suppressing the expression of Id1 and focal adhesion kinase; cited from earlier work
[7] = test system: breast cancer cell line MCF-7; design: method as in PMID 27784319, PMID 15787436; details: cited from earlier work

Row | IC50 ([3]; Homo sapiens, A2780, 48 h) [µM] | Structure (SMILES) | IC50 ([1]; Homo sapiens, IOSE-80PC) [µM] | other results
1 | < 100 | COc1ccc(-c2coc3cc(OC4OC(CO)C(O)C(O)C4O)c(OC)c(O)c3c2=O)cc1 [Compound 14, irisolidone-7-O-β-D-glucopyranoside] | > 100 | IC50 [3]: 71.2 ± 11.3 µM
2 | > 100 | COc1c(OC2OC(COC3OCC(O)C(O)C3O)C(O)C(O)C2O)cc2occ(-c3ccc(O)cc3)c(=O)c2c1O [Compound 15, tectorigenin-7-O-β-D-xylopyranosyl-(1→6)-O-β-D-glucopyronoside] |  | 
3 | > 100 | COc1c(O[C@@H]2O[C@H](CO)[C@@H](O)[C@H](O)[C@H]2O)cc2occ(-c3ccc(O)cc3)c(=O)c2c1O [Compound 13, tectoridin] |  | 
4 | > 100 | O=C1C[C@@](O)(c2ccc(O)cc2)Oc2cc(O)cc(O[C@@H]3O[C@H](CO)[C@@H](O)[C@H](O)[C@H]3O)c21 [Compound 6, 2-hydroxy-naringenin-5-O-β-D-glucopyranoside] |  | 
5 | > 100 | C[C@@H]1O[C@@H](OC[C@H]2O[C@@H](OCc3ccccc3)[C@H](O)[C@@H](O)[C@@H]2O)[C@H](O)[C@H](O)[C@H]1O [Compound 22, hydrageifolin I] |  | 
6 | 19.4 ± 2.92 | O=c1c(O)c(-c2ccc(O)c(O)c2)oc2cc(O)cc(O)c12 [Quercetin, quercetin, reference compound] | > 100 | 
7 | > 100 | C[C@@H]1O[C@@H](OC[C@H]2O[C@@H](Oc3c(-c4ccc(O)cc4)oc4cc(O)cc(O)c4c3=O)[C@H](O)[C@@H](O)[C@@H]2O)[C@H](O)[C@H](O)[C@H]1O [Compound 9, nicotiflorin] |  | 
8 | < 100 | COc1c(O)cc2occ(-c3ccc(O)c(O)c3)c(=O)c2c1O [Compound 12, irilin D] | > 100 | IC50 [3]: 57.5 ± 3.08 µM; anticancer activity in MCF-7 [7]: anticancer activity

Continued, compound first:

Row | Structure (SMILES) | IC50 ([3]; Homo sapiens, A2780, 48 h) [µM] | IC50 ([1]; Homo sapiens, IOSE-80PC) [µM] | other results
9 | O=c1c(-c2ccc(O)cc2)coc2cc(O)cc(O)c12 [Compound 10, genistein] |  | > 100 | VEGF expression in OVCAR3 (VEGF expression): downregulates VEGF expression; cell proliferation in OVCAR3 [2]: inhibits cell proliferation
10 | COc1c(O)cc2occ(-c3ccc(O)cc3)c(=O)c2c1O [Compound 11, tectorigenin] |  | > 100 | 
11 | COc1cc2c(=O)c(-c3ccc(O)cc3)coc2cc1O [Compound 16, glycitein] |  | > 100 | 
12 | COc1cc([C@@H]2Oc3ccc(-c4cc(=O)c5c(O)cc(O)cc5o4)cc3O[C@H]2CO)ccc1O [Compound 21, (-)-hydnocarpin] |  | 65.8 ± 1.6 | antiproliferative activity against HEK293 ((HEK293)): considerable antiproliferative activities; cytotoxicity against LNCaP (LNCaP): no cytotoxicity; antiproliferative activity against P-388 [4]: considerable antiproliferative activities; cytotoxicity against Lu1 (Lu1): no cytotoxicity; antiproliferative activity against SW-480 [5]: considerable antiproliferative activities; cytotoxicity against MCF-7 (MCF-7): no cytotoxicity
13 | N.N.[Cl][Pt][Cl] [Cisplatin, cisplatin, reference compound] |  |  | IC50 [3]: 10.7 ± 0.81 µM; IC50 [1]: 12.8 ± 0.55 µM
14 | O=c1cc(-c2ccc(O)cc2)oc2cc(O)cc(O)c12 [Compound 8, apigenin] |  | > 100 | proliferation and migration of A2780 [6]: inhibits the proliferation and migration
15 | COc1ccc(-c2coc3cc(O)c(OC)cc3c2=O)cc1 [Compound 17, afromosin] |  | > 100 | anticancer activity in MCF-7 [7]: anticancer activity
